Results taken from patent US20160046582A1 (Teva Pharmaceutical Industries Ltd., priority 2014, published 2016).
Read-outs that look alike come from different tables or passages of the source.

Columns and labels:
[1] = Solubility in water (description of drug substance); type: physicochemical
Source text: The solubility terms are defined below, in accordance with the United States Pharmacopoeia XXV.

[2] = cited from earlier work
[3] = Particle size distribution by Malvern laser diffraction (Mastersizer S); type: physicochemical; conditions: for PSD by Malvern D(0.9) / PSD by Malvern d(0.1) / PSD by Malvern d(0.5): modified pilot scale, 2.5 kg batch
Method: The particle size distributions were measured by Malvern Laser Diffraction, using the Mastersizer S model. Laser diffraction relies on the fact that diffraction angle of light is inversely proportional to particle size. Properties of particles are measured and interpreted as measurements of a sphere (a sphere being the only shape that can be described by one unique number). In addition, laser diffraction calculates a particle size distribution based around volume terms, thus eliminating particle count from the determination of particle size. The Mastersizer S model measures particles using a single technique and a single range setting.
D(0.1) is the particle size, in microns, below which 10% by volume distribution of the population is found. D(0.5) is the particle size, in microns, below which 50% by volume distribution of the population is found. D(0.9) is the particle size, in microns, below which 90% by volume distribution of the population is found.

[4] = prior art examples; cited from earlier work
[5] = cited from earlier work; remark: listed apart in the source
[6] = Bulk density of powder; type: physicochemical; conditions: production scale
Method: • 1. Mix powder; • 2. Tare a 50 ml empty cylinder on a 0.01 g sensitivity balance; • 3. Transfer the powder, without compacting, to the cylinder being held at approximately a 45 degree angle to achieve an untapped apparent volume of 40 to 50 ml. • 4. Bring the cylinder containing the sample to a vertical position by a sharp move in order to level the volume for reading. • 5. Read the apparent volume (Va) to the nearest graduated unit; • 6. Weigh the cylinder with sample (the balance gives sample weight M); • 7. Calculate bulk density in g/ml according to the following equation: BD=M/Va; • 8. Perform steps 1-7 again and report the average data of duplicates.

[7] = Tapped density of powder (Quantachrome Dual Autotap, 1250 taps); type: physicochemical; conditions: production scale
Source text: • 1. Put the same cylinder used to calculate Bulk Density in a Quantachrome Dual Autotap instrument; • 2. Perform 1250 taps; • 3. Read the tapped volume (Vf) to the nearest graduated unit; • 4. Calculate the tapped density in g/ml according to the following equation: TD=M/Vf; • 5. Perform steps 1-4 again and report the average data of duplicates.

[8] = system: acute experimental autoimmune encephalomyelitis (aEAE) model; conditions: in vivo; cited from earlier work
[9] = system: active MRI lesions in relapsing MS; conditions: cited from earlier work
[10] = In vitro AMES test (CRL studies No. 962723 and No. 963892); type: cell-based; conditions: MCQ: pre-incubation method, CRL study No. 962723, MCQME: CRL study No. 963892
[11] = In vivo MN (Covance study No. 8246631)
[12] = Hygroscopicity; type: physicochemical; conditions: exposure to air
[13] = Chemical stability observed on handling or purification; type: physicochemical; conditions: most organic solvents and aqueous acidic medium
[14] = starting material of the recrystallization
[15] = laboratory scale recrystallization, 25 g
[16] = laboratory scale, 25 g batch, prior art

In the case of `CCN(C(=O)c1c([O-])c2c(Cl)cccc2n(C)c1=O)c1ccccc1.[Na+]` [Laquinimod sodium], the solubility in water [1] is given as “freely soluble” and the oral bioavailability [2] is given as “high”.
In the case of `CCN(C(=O)c1c([O-])c2c(Cl)cccc2n(C)c1=O)c1ccccc1.[Na+]` [crude laquinimod sodium], the “particle size d(0.1)” value [3, 14] is reported as 1-2 μ, the “particle size d(0.5)” value [3, 14] is reported as 6-11 μ and the “particle size d(0.9)” value [3, 14] is reported as 20-35 μ.
In the case of `CCN(C(=O)c1c([O-])c2c(Cl)cccc2n(C)c1=O)c1ccccc1.[Na+]` [Example 14 of U.S. Pat. No. 7,884,208], the “Tapped Density (in words)” value [4] is listed as “undesired” and the “size of 10% or more of the total amount by volume of the particles” value ([5]; prior art example) is listed as “less than 5 microns”.
In the case of `CCN(C(=O)c1c([O-])c2c(Cl)cccc2n(C)c1=O)c1ccccc1.[Na+]` [Batch E], the “Bulk Density” value [6] is reported as 0.245 g/mL, the “Tapped Density” value [7] is reported as 0.460 g/mL and the “PSD D(0.1)” value ([3]; production scale) is reported as 2.5 μm. For the same compound, the “PSD D(0.5)” value ([3]; production scale) was 9.5 μm and the “PSD D(0.9)” value ([3]; production scale) was 21.0 μm.
For `CCN(C(=O)c1c([O-])c2c(Cl)cccc2n(C)c1=O)c1ccccc1.[Na+]` [Pilot Scale Batch A], the “PSD by Malvern D(0.9)” value [3] was 33.8 um, the “PSD by Malvern d(0.1)” value [3] was 3.3 um and the “PSD by Malvern d(0.5)” value [3] was 12.9 um.
In the case of `CCN(C(=O)c1c([O-])c2c(Cl)cccc2n(C)c1=O)c1ccccc1.[Na+]` [Laboratory Scale Batch B], the “PSD D(0.1)” value [3, 15] is reported as 2.6 μm, the “PSD D(0.5)” value [3, 15] is reported as 12.4 μm and the “PSD D(0.9)” value [3, 15] is reported as 34.3 μm.
For `CCN(C(=O)c1c([O-])c2c(Cl)cccc2n(C)c1=O)c1ccccc1.[Na+]` [Batch C], the “Bulk Density” value [6] was 0.308 g/mL, the “Tapped Density” value [7] was 0.609 g/mL and the “PSD D(0.1)” value ([3]; production scale) was 4.1 μm. The “PSD D(0.5)” value ([3]; production scale) was 14.0 μm and the “PSD D(0.9)” value ([3]; production scale) was 32.0 μm.
For `CCN(C(=O)c1c(O)c2c(Cl)cccc2n(C)c1=O)c1ccccc1` [Laquinimod, N-ethyl-N-phenyl-1,2,-dihydro-4-hydroxy-5-chloro-1-methyl-2-oxoquinoline-3-carboxamide], the “efficacy in aEAE model” value [8] is given as “effective” and the “development of active MRI lesions” value [9] is given as “can reduce development of active MRI lesions”.
With `CCN(C(=O)c1c([O-])c2c(Cl)cccc2n(C)c1=O)c1ccccc1.[Na+]` [Pilot Scale Batch B] the “PSD by Malvern D(0.9)” value [3] was 33.9 um, the “PSD by Malvern d(0.1)” value [3] was 4.1 um and the “PSD by Malvern d(0.5)” value [3] was 13.5 um.
For `COC(=O)c1c(O)c2c(Cl)cccc2n(C)c1=O` [MCQME, methyl 5-chloro-4-hydroxy-1-methyl-2-oxo-1,2-dihydroquinoline-3-carboxylate], the “AMES test genotoxic activity” value [10] was “Weak genotoxic activity in the in vitro” and the “in vivo MN” value [11] was “negative in the in vivo MN”.
With `CCN(C(=O)c1c(O)c2c(N(C)C[C@H](O)[C@@H](O)[C@H](O)[C@H](O)CO)cccc2n(C)c1=O)c1ccccc1` (stereo in doubt) [MEG-LAQ, N-ethyl-4-hydroxy-1-methyl-5-(methyl(2,3,4,5,6-pentahydroxyhexyl)amino)-2-oxo-N-phenyl-1,2-dihydroquinoline-3-carboxamide] the hygroscopicity [12] was “high hygroscopicity”.
For `CCN(C(=O)c1c([O-])c2c(Cl)cccc2n(C)c1=O)c1ccccc1.[Na+]` [Example 13 of U.S. Pat. No. 7,884,208], the “Tapped Density (in words)” value [4] is listed as “high”.
For `Cn1c(=O)cc(O)c2c(Cl)cccc21` [MCQ, 5-chloro-4-hydroxy-1-methylquinolin-2(1H)-one], the “AMES test genotoxic activity” value [10] was “AMES data negative in the pre-incubation”.
In the case of `CCN(C(=O)c1c([O-])c2c(Cl)cccc2n(C)c1=O)c1ccccc1.[Na+]` [Example 15 from U.S. Pat. No. 7,884,208], the “PSD by Malvern D(0.9)” value [5, 16] is listed as 51.8 um, the “PSD by Malvern d(0.1)” value [5, 16] is listed as 6.1 um and the “PSD by Malvern d(0.5)” value [5, 16] is listed as 21.2 um.
In the case of `CCN(C(=O)c1c([O-])c2c(Cl)cccc2n(C)c1=O)c1ccccc1.[Na+]` [Batch D], the “Bulk Density” value [6] is reported as 0.288 g/mL, the “PSD D(0.5)” value ([3]; production scale) is reported as 14.7 μm and the “PSD D(0.9)” value ([3]; production scale) is reported as 33.6 μm.
In the case of `CCN(C(=O)c1c(O)c2c(O)cccc2n(C)c1=O)c1ccccc1` [Batch 5-HLAQ, N-ethyl-4,5-dihydroxy-1-methyl-2-oxo-N-phenyl-1,2-dihydroquinoline-3-carboxamide], the stability in solvents [13] is reported as “unstable”.
In the case of `CCN(C(=O)c1c([O-])c2c(Cl)cccc2n(C)c1=O)c1ccccc1.[Na+]` [Laboratory Scale Batch A], the “PSD D(0.1)” value [3, 15] is reported as 2.3 μm, the “PSD D(0.5)” value [3, 15] is reported as 10.8 μm and the “PSD D(0.9)” value [3, 15] is reported as 32.7 μm.
